Data taken from patent US10369185B2, “Methods and compositions for enhancement of ability to concentrate” (KYOWA HAKKO BIO CO., LTD., priority 2014, dated 2019).
“Also recorded” adds a separate entry of the source. Peptide text beside a SMILES is read from it.

How the values were obtained:
[1] = tested on: male runners; assay: Multiple object tracking (CAVE, NeuroTracker); format: in vivo, human; details: for NeuroTracker Δ, group mean: Post-Pre
Description: The testing protocol is depicted in FIG. 1. Data collection occurred on four separate occasions. Each session required participants to perform a 60-min run at 75% of their previously measured VO2max. Following this run, all participants performed a run at 90% of their VO2max until volitional exhaustion. All participants performed their first trial (DHY) without any rehydration. During this session the total weight lost during the trial was determined. The fluid loss that occurred during this session was then used to determine the participant's swear rate (L·hr^−1). To continue in the study, participant's sweat rate was or exceeded 1.3 L·hr^−1. During the next three trails participants were provided 250 ml of fluid every 15 minutes in equal amounts. During one of the trials participants consumed only a flavored sports drink (ELECT only), while during the other trials participants consumed the alanine-glutamine supplement (Sustamine™) mixed in the same flavored sports drink at either a low (LD: 300 mg per 500 ml) or high (HD: 1 g per 500 ml) dose. Visual optical tracking was assessed using a Cave Automatic Virtual Environment (CAVE) system. The CAVE is a 2.4 m×2.4 m×2.4 m room that includes a frontal canvas projection wall which served as surfaces for image projection. Four high-resolution projectors were synchronized, and the image was projected onto the front screen. Participants tracked 4 of 8 objects that moved in a three-dimensional plane. Velocity of movement began at a slow tracking speed and progressed on the performance of the individual participant. Each participant performed 10 trials. During each trial participants wore 3-dimensional glasses. The velocity of movement that was most successful was recorded. Additionally, to make inferences on true effects of the different trials on reaction performance, an analysis based on the magnitude of differences, calculated from 90% confidence intervals, as previously described by Batterham and Hopkins (2005), was used in this study. Differences in Post-Pre performance (Δresponse) between trials were analyzed via a published spreadsheet (Hopkins 2007), with the smallest non-trivial change set at 20% of the grand standard deviation (Batterham and Hopkins 2005). All data are expressed as a mean effect±SD, with percent chances of a beneficial, trivial or negative outcome. Qualitative inferences, based on quantitative chances were assessed as: <1% almost certainly not, 1-5% very unlikely, 5-25% unlikely, 25-75% possibly, 75-95% likely, 95-99% very likely and >99% almost certainly (Hopkins 2002).

[2] = Blood measures during the 60-min run (plasma lactate, glucose, osmolality, potassium, sodium, glutamine); format: in vivo, human; details: at 45-min; HD compared with LD
Description: During each experimental session baseline (BL) blood samples were obtained at preexercise. Additional blood samples were also obtained following 30 min, 45 min and 60 min during the exercise session. All blood samples were obtained using a 20-gauge Teflon cannula placed in a superficial forearm vein using a 3-way stopcock with a male luer lock adapter. The cannula was maintained patent using an isotonic saline solution. BL blood samples were drawn following a 15-min equilibration period prior to exercise. Blood samples were obtained at the same time of day during each session.
Blood samples were drawn into plain or EDTA treated tubes. Blood samples will be analyzed in triplicate for hematocrit via microcapillary technique and hemoglobin. […]
Plasma glucose and lactate concentrations were determined in duplicate with an automated analyzer (Analox GM7 enzymatic metabolite analyzer, Analox Instruments USA, Lunenburg, Mass.). Plasma glutamine was analyzed with the use of a spectrophotometer and a commercially available enzymatic kit (Abnova, Jhongli City, Taiwan) per manufacturer's instructions. Serum immunoreactivity values were determined using a BioTekEon spectrophotometer (BioTek, Winooski, Vt., USA). Plasma sodium and potassium concentrations were assessed via ion-selective electrodes (EasyElectrolyte, Medica, Bedford, Mass.). […]

C[C@H](N)C(=O)N[C@@H](CCC(N)=O)C(=O)O [L-Alanyl-L-Glutamine] (H-Ala-Gln-OH)
NeuroTracker Δ, Interpretation ([1]; Dehydration vs High Dose): Unclear | NeuroTracker Δ, Mean Difference ([1]; Dehydration vs High Dose): −0.06 | NeuroTracker Δ, Percent Negative ([1]; Dehydration vs High Dose): 37.20% | NeuroTracker Δ, Percent Positive ([1]; Dehydration vs High Dose): 12.32% | NeuroTracker Δ, Percent Trivial ([1]; Dehydration vs High Dose): 50.47% | NeuroTracker Δ, Interpretation ([1]; Dehydration vs Low Dose): Unclear | NeuroTracker Δ, Mean Difference ([1]; Dehydration vs Low Dose): 0.008 | NeuroTracker Δ, Percent Negative ([1]; Dehydration vs Low Dose): 21.19% | NeuroTracker Δ, Percent Positive ([1]; Dehydration vs Low Dose): 24.48% | NeuroTracker Δ, Percent Trivial ([1]; Dehydration vs Low Dose): 54.33% | NeuroTracker Δ, Interpretation ([1]; Gatorade vs High Dose): likely maintain or improve their scores more so than when they consumed the electrolyte drink only; also recorded: Likely | NeuroTracker Δ, Mean Difference ([1]; Gatorade vs High Dose): −0.23 | NeuroTracker Δ, Percent Negative ([1]; Gatorade vs High Dose): 85.10% | NeuroTracker Δ, Percent Positive ([1]; Gatorade vs High Dose): 0.44% | NeuroTracker Δ, Percent Trivial ([1]; Gatorade vs High Dose): 14.46% | NeuroTracker Δ, group mean ([1]; High Dose (1 g per 500 ml)): 0.201 | NeuroTracker Δ, group mean ([1]; Low Dose (300 mg per 500 ml)): 0.132 | NeuroTracker Δ, Interpretation ([1]; Low Dose vs Gatorade): Possibly | NeuroTracker Δ, Mean Difference ([1]; Low Dose vs Gatorade): 0.17 | NeuroTracker Δ, Percent Negative ([1]; Low Dose vs Gatorade): 4.42% | NeuroTracker Δ, Percent Positive ([1]; Low Dose vs Gatorade): 64.40% | NeuroTracker Δ, Percent Trivial ([1]; Low Dose vs Gatorade): 31.18% | NeuroTracker Δ, Interpretation ([1]; Low Dose vs High Dose): Possibly | NeuroTracker Δ, Mean Difference ([1]; Low Dose vs High Dose): 0.069 | NeuroTracker Δ, Percent Negative ([1]; Low Dose vs High Dose): 26.72% | NeuroTracker Δ, Percent Positive ([1]; Low Dose vs High Dose): 0.45% | NeuroTracker Δ, Percent Trivial ([1]; Low Dose vs High Dose): 72.83% | changes in multiple object tracking ([1]; between trials): No significant differences were noted between trials | plasma glutamine concentrations [2]: significant difference
